This assay has as its system B16. The experiment in a line: In vivo antitumor activity against mouse B16 cells assessed as increase in life span. It counts as functional.

In the case of `CC(=O)O[C@H]1C(=O)[C@@]2(C)[C@H]([C@H](OC(=O)c3ccccc3)[C@]3(O)C[C@H](OC(=O)[C@H](O)[C@@H](NC(=O)c4ccccc4)c4ccccc4)C(C)=C1C3(C)C)[C@]1(OC(C)=O)CO[C@@H]1C[C@@H]2O` [PACLITAXEL], the Activity worked out at 32%.

Source of the values: ChEMBL document CHEMBL1151980, “Tubulin-interactive natural products as anticancer agents” (2009).
